Entries after “also recorded” stand apart in the source; their conditions may differ.
What was measured:
[1] = tested on: phosphorylation of eIF4B at S406; assay: Immunoblotting of eIF4B S406 phosphorylation in drug-treated mitotic cells; format: cell-based, human
Experimental: MDA-MB-468 cells stably expressing tetracycline-inducible (tet-on) small hairpin MELK (shMELK) in the presence or absence of doxycycline were harvested through treatment of nocodazole, and subjected to immunoblotting. […] Mitotic MDA-MB-468 cells were treated for 30 min with vehicle or 200 nM OTSSP167, a MELK inhibitor (Chung et al. (2012) Oncotarget 3:1629-1640). Lysates were used for immunoblotting.
(§1) For treatment with nocodazole, cells were refreshed with medium containing nocodazole (200 ng/ml). Twenty hours after treatment, floating mitotic cells were harvested by gental shake-off. For drug treatment, cells were seeded in multi-well plate, in the presence of OTSSP167 (ChemExpress, HY15512; 10 mM stock made in DMSO).
(§2) Cells were harvested and lysed with RIPA buffer (25 mM Tris, pH 7.4, 150 mM NaCl, 1% Nonidet P-40, 0.5% sodium deoxycholate, and 0.1% sodium dodecyl sulfate) supplemented with protease inhibitors cocktail (Roche) and phosphatase inhibitors cocktail (Thermo Scientific). Cleared lysates were analyzed for protein concentration using a BCA kit (Thermo Scientific). Equal amount of protein (10-20 μg) was resolved on SDS-PAGE, and was subsequently transferred onto a nitrocellulose or polyvinylidene difluoride membrane (Amersham). The membrane was blocked with 5% non-fat milk and was then incubated with primary antibodies overnight at 4° C. After washing, the membrane was incubated with fluorophore-conjugated secondary antibodies for 1 h at room temperature. The membrane was then washed and scanned with an Odyssey® Infrared scanner (Li-Cor Biosciences).
The following antibodies were used for immunoblotting or immunoprecipitation, MELK (Epitomics, 2916), p-eIF4B (S406) (Cell Signaling, 8151), p-eIF4B (S422) (Cell Signaling, 3591), eIF4B (Cell Signaling, 3592), c-Myc (Cell Signaling, 5605), XIAP (Cell Signaling, 2045), p-Akt (S473) (Cell Signaling, 4060), p-MAPK (T202/Y204) (Cell Signaling, 4370), cleaved PARP (Asp214) (Cell Signaling, 9541), Aurora A (Cell Signaling, 4718), Aurora B (Cell Signaling, 3094), p-Aurora A (T288)/Aurora B (T232)/Aurora C (T198) (Cell Signaling, 2914), p-Histone H3 (T3) (Cell Signaling, 13576), p-Histone H3 (S10) (Cell Signaling, 3377), p-Histone H3 (T11) (Cell Signaling, 9767), p-Histone H3 (S28) (Cell Signaling, 9713), ODC (Sigma, O1136), Vinculin (Sigma, V9131, alpha-tubulin (Sigma, T9016), anti-HA magnetic beads (Pierce, 88836), anti-Flag magnetic beads (Sigma, M8823). Secondary antibodies used were Alexa Fluor 680 goat anti-rabbit IgG (Invitrogen A-21109) and IRDye800-conjugated anti-mouse IgG (Rockland).

[2] = biological target: T1, recombinant MELK (kinase domain) (Homo sapiens, UniProt Q14680); assay: In vitro kinase assay, recombinant MELK (kinase domain) with recombinant Histone H3, immunoblotting; format: biochemical; details: 200 ng/ml final, 30 min at 30° C. (FIG. 12)
T1 construct: incubated without or with recombinant MELK (kinase domain) for 30 min. at 30° C
T1 sequence (Q14680 11-263 limits assumed): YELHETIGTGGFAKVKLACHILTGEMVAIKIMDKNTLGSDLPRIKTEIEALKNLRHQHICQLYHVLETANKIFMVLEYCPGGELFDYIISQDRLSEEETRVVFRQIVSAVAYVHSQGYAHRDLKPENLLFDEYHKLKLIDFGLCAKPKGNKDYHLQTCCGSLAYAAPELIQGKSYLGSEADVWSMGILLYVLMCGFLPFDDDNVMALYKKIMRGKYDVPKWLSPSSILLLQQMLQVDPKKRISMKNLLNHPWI
Experimental: Reactions were terminated by adding SDS sample buffer. Samples were subjected to immunoblotting using the indicated antibodies.
Flag-tagged eIF4B or Flag-eIF4B (S406A) was transfected into HEK293T cells (4 μg DNA for cells in one 60 mm dish). Thirty-six hours after transfection, cells were lysed with IP buffer (100 mM NaCl, 50 mM Tris, pH 7.5, 0.5% NP-40, 0.5% Sodium deoxycholate, supplemented with protease/phosphatase inhibitor cocktail). Lysates were cleared via incubating with anti-mouse IgG conjugated to magnetic beads (4° C., 30 min), and then immunoprecipitated with anti-Flag M2 magnetic beads (Sigma) (4° C., 120 min). The beads with bound antigens were washed 5 times with IP buffer. Beads during the last wash were aliquoted into 1.5 ml microcentrifuge tubes. After removal of IP buffer, the beads were washed once with 1× kinase buffer without ATP (5 mM Tris, pH 7.5, 5 mM-βglycerophosphate, 2 mM dithiothreitol, 0.1 mM Na3VO4, 10 mM MgCl2; Cell Signaling). After the wash, 40 μl 1× kinase buffer with 200 mM ATP was added to each tube, followed by 5 ul buffer without or with 500 ng recombinant MELK. The reaction was incubated at 30° C. for 30 min, and terminated by adding 40 ul 2×SDS sample buffer. The samples were then boiled and subjected to immunoblotting. […]

[3] = tested on: mitotic phosphorylation of Histone H3; assay: Immunoblotting of mitotic Histone H3 phosphorylation in drug-treated cells; format: cell-based, human
Experimental: Mitotic cells were harvested through nocodazole-induced cell cycle arrest at prometaphase (200 ng/ml nocodazole, 20 hours). Cells were treated with the small chemical inhibitor of MELK, OTSSP167, for 30 min, at the indicated concentrations. Cell lysates were then prepared for immunoblotting.
as §1
as §2, with “The membrane was then washed and scanned with an Odyssey® Infrared scanner (Li-Cor Biosciences).” left out

[4] = mitotic cells treated for 30 min, mTOR inhibitors versus MELK inhibitor (FIG. 6)

Compound	phosphorylation of eIF4B at S406 ([1]; mitotic MDA-MB-468 cells, 200 nM, 30 min, vs vehicle (FIG. 5 right panels))	phosphorylation of eIF4B at S406 [1, 4]	MELK-induced phosphorylation of Histone H3 at Ser 10 in vitro [2]	phosphorylation of Histone H3 at Thr3/Ser10/Thr11 ([3]; MDA-MB-468 cells (text cites FIG. 12))	mitotic phosphorylation of Histone H3 at Thr-3, Ser-10 and Thr-11 ([3]; nocodazole-arrested mitotic cells, 30 min, indicated concentrations (FIG. 13))	phosphorylation of eIF4B at S406 ([1]; mitotic cells treated for 30 min, mTOR inhibitors versus MELK inhibitor (FIG. 6), listed as torins)
CC(=O)c1cnc2ccc(-c3cc(Cl)c(O)c(Cl)c3)nc2c1N[C@H]1CC[C@H](CN(C)C)CC1 [OTSSP167]	impairs the phosphorylation of eIF4B at S406	suppressed the phosphorylation of eIF4B at S406	suppresses MELK-induced phosphorylation of Histone H3 at Ser 10	reduced phosphorylation of Histone H3 at Thr3/Ser10/Thr11	concentration-dependent reduction; also recorded: suppresses the mitotic phosphorylation of Histone H3 at Thr-3, Ser-10 and Thr-11	
CCC(=O)N1CCN(c2ccc(-n3c(=O)ccc4cnc5ccc(-c6cnc7ccccc7c6)cc5c43)cc2C(F)(F)F)CC1 [Torin 1]		not mTOR inhibition				do not produce the same results

Reference: patent publication US10254283B2, “Biomarker for MELK activity and methods of using same” (Dana-Farber Cancer Institute, Inc., priority 2013, dated 2019)
